The test system of one data set is Strep pyogenes 203. In words: in vivo oral protection against acute experimental infection in mice. Particulars: Mus musculus, read-out: PD50. An excerpt: (§1) In determining such activity, acute experimental infections are produced in mice by the intraperitoneal inoculation of the mice with a standardized culture of the test organism suspended in 5 percent hog gastric mucin. Infection severity is standardized so that the mice receive at least one LD100 dose of the organism (LD100 : the minimum inoculum of organism required to consistently kill 100 percent of the infected, nontreated control mice). The test compound is orally administered at various dosage levels to groups of infected mice at 1/2, 4 and 24 hours post infection. At the end of the test, the activity of the mixture is assessed by counting the number of survivors among treated animals at a given dose. Activity is expressed as the percentage of animals which survive at a given dose, or calculated as a PD50 (dose which protects 50% of the animals from infection).

For the next data set, the system named is Staph aureus 005. The data set is described as above. Particulars: read-out: PD50.
From the text: as §1

The next data set has as its system Neiss. Sicca 000. In words: in vitro MIC, tube serial dilution, 24 hour incubation. Format: cell-based. The method, then:
(§2) Table I summarizes the results of in vitro MIC (minimum inhibitory concentration) tests. For this standard test, each organism is inoculated into a series of tubes containing nutrient medium and serially diluted concentrations of the antibiotic. The MIC is the lowest concentration of antibiotic which prevents growth of the microorganism over the 24 hour incubation test period.

A further data set has as its system Strep. pneum. 012. Described as above. Format: cell-based. The procedure:
as §2

A further data set deals with Hem. influ. 012. The description is as above. Format: cell-based. The procedure:
as §2

The subject of a further data set is E. Coli 470. The data set is described as above. Format: cell-based. Particulars: Escherichia coli. The method, then:
as §2

A further data set relates to Strep. faec. 006. The description is as above. Format: cell-based. The procedure: as §2
A further data set concerns Staph. aureus 052. The data set is described as above. Format: cell-based. The procedure:
as §2

Another data set concerns Strep. pyog. 203. The description is as above. Format: cell-based. The procedure:
as §2

The subject of another data set is Staph. epid. 111. The description is as above. Format: cell-based. The method, then:
as §2

A further data set concerns Staph. aureus 400. The data set is described as above. The format is cell-based. The method, then:
as §2

The subject of a further data set is Staph. aureus 005. The data set is described as above. The format is cell-based. The procedure:
as §2

For another data set, the system named is Hem. influ. 036. The data set is described as above. Format: cell-based. The procedure:
as §2

Data set [1] can be described thus: absorption via the oral route. The format is in vivo.
The test system of a further data set is Past. mult. 001. In words: in vitro MIC, tube serial dilution, 24 hour incubation. The format is cell-based. The method, then:
as §2

The test system of data set [2] is Gram-positive and Gram-negative bacteria. As to the kind of experiment: in vitro antibacterial activity (summary statement). The format is cell-based. Particulars: medium spectrum of Gram-positive and Gram-negative bacteria. The procedure: as §2
Another data set has as its system sensitive bacteria. In words: in vivo activity against infections by sensitive bacteria (summary statement). Particulars: mice, oral.
From the text: as §1

The nature of the next data set: stability at acid pH. The format is physicochemical. Particulars: acid pH (2.5 to 5.0); unlike erythromycin A.
The mark [3] stands for this setting: mice, Strep pyogenes 203, oral dosage 1/2, 4 and 24 hours post infection.
The mark [4] stands for this setting: Staphylococcus aureus, mice, Staph aureus 005, oral dosage 1/2, 4 and 24 hours post infection.
[5] abbreviates: Neiss. Sicca 000, read-out: MIC.
[6] abbreviates: Strep. pneum. 012, read-out: MIC.
Where [7] appears, read: Strep. faec. 006, read-out: MIC.
Setting [8] is: Staphylococcus aureus, 24 h, Staph. aureus 052, read-out: MIC.
Where [9] appears, read: Strep. pyog. 203, read-out: MIC.
Where [10] appears, read: Staph. epid. 111, read-out: MIC.
Setting [11] is: Staphylococcus aureus, 400, 24 h.
The mark [12] stands for this setting: Staphylococcus aureus, 24 h, Staph. aureus 005, read-out: MIC.
The mark [13] stands for this setting: Staphylococcus aureus, 24 h, Staph. aureus 400, read-out: MIC.

Here are results for five molecules from patent US4496546A, “Erythromycin D and esters thereof” (Pfizer Inc., priority 1982, dated 1985).

Converted amounts (≈) assume the structure as drawn. Like-named read-outs stand apart in the source and are kept apart here. Where only a bound is given, the exact number is not on record here.

Usually MIC stands for the lowest concentration that inhibits growth of the organism. For `CCC1OC(=O)C(C)C(OC2CC(C)(OC(C)=O)C(OC(C)=O)C(C)O2)C(C)C(OC2OC(C)CC(N(C)C)C2O)C(C)(O)CC(C)C(=O)C(C)C(O)C1C` (centres unmarked) [3",4"-Di-O-acetylerythromycin D], the ED50 in the data set on Strep pyogenes 203 (setting [3]) is 15 mg/kg; in the data set on Staph aureus 005 (setting [4]) it was 27 mg/kg. Further, the MIC with Neiss. Sicca 000 (setting [5]) is 25 µg/mL (≈ 31.7 µM); in the data set on Strep. pneum. 012 (setting [6]) it was 0.1 µg/mL (≈ 0.127 µM); in the data set on Hem. influ. 012 (Hem. influ. 012, read-out: MIC) it was greater than 50 µg/mL; with E. Coli 470 (E. Coli 470, read-out: MIC), 12.5 µg/mL (≈ 15.9 µM); in the data set on Strep. faec. 006 (setting [7]), 1.56 µg/mL (≈ 1.98 µM); with Staph. aureus 052 (setting [8]) it was 3.12 µg/mL (≈ 3.96 µM). The minimal inhibitory concentration (MIC) in the data set with Strep. pyog. 203 (setting [9]) was 0.1 µg/mL (≈ 0.127 µM); in the data set on Staph. epid. 111 (setting [10]), 0.39 µg/mL (≈ 0.495 µM); against Staph. aureus 400 (setting [11]), 50 µg/mL (≈ 63.5 µM); with Staph. aureus 005 (setting [12]), 1.56 µg/mL (≈ 1.98 µM); with Hem. influ. 036 (Hem. influ. 036, read-out: MIC), greater than 50 µg/mL. The “absorption via the oral route” value in data set [1] is “high degree of absorption”.

`CCC(=O)OC1C(C)OC(OC2C(C)C(=O)OC(CC)C(C)C(O)C(C)C(=O)C(C)CC(C)(O)C(OC3OC(C)CC(N(C)C)C3O)C2C)CC1(C)OC(C)=O` (centres unmarked) [3"-O-Acetyl-4"-O-propionylerythromycin D]: the MIC is 12.5 µg/mL (≈ 15.6 µM) in the data set with Past. mult. 001 (Past. mult. 001, read-out: MIC); 12.5 µg/mL (≈ 15.6 µM) with Neiss. Sicca 000 (setting [5]); 0.05 µg/mL (≈ 0.0623 µM) with Strep. pneum. 012 (setting [6]); 50 µg/mL (≈ 62.3 µM) in the data set with Hem. influ. 012; 12.5 µg/mL (≈ 15.6 µM) in the data set on E. Coli 470 (E. Coli 470, read-out: MIC); 0.78 µg/mL (≈ 0.973 µM) with Strep. faec. 006 (setting [7]). Besides, the MIC was 0.78 µg/mL (≈ 0.973 µM) in the data set with Staph. aureus 052 (setting [8]); 0.05 µg/mL (≈ 0.0623 µM) with Strep. pyog. 203 (setting [9]); 0.2 µg/mL (≈ 0.249 µM) with Staph. epid. 111 (setting [10]); 12.5 µg/mL (≈ 15.6 µM) with Staph. aureus 400 (setting [13]); 0.39 µg/mL (≈ 0.486 µM) in the data set with Staph. aureus 005 (setting [12]); greater than 50 µg/mL in the data set with Hem. influ. 036 (Hem. influ. 036, read-out: MIC).

As to `CCC1OC(=O)C(C)C(OC2CC(C)(O)C(OC(C)=O)C(C)O2)C(C)C(OC2OC(C)CC(N(C)C)C2O)C(C)(O)CC(C)C(=O)C(C)C(O)C1C` (centres unmarked) [4"-O-Acetylerythromycin D], the ED50 came out at 40 mg/kg in the data set with Strep pyogenes 203 (setting [3]) and 139 mg/kg in the data set on Staph aureus 005 (setting [4]). The MIC with Past. mult. 001 (Past. mult. 001, read-out: MIC) was 25 µg/mL (≈ 33.5 µM); in the data set on Neiss. Sicca 000 (setting [5]), 25 µg/mL (≈ 33.5 µM); with Strep. pneum. 012 (setting [6]), 0.39 µg/mL (≈ 0.523 µM); with Hem. influ. 012 (Hem. influ. 012, read-out: MIC), 50 µg/mL (≈ 67 µM); against E. Coli 470 it was 6.25 µg/mL (≈ 8.38 µM); with Strep. faec. 006 (setting [7]), 3.12 µg/mL (≈ 4.18 µM). The MIC was 6.25 µg/mL (≈ 8.38 µM) in the data set on Staph. aureus 052 (setting [8]); 0.2 µg/mL (≈ 0.268 µM) with Strep. pyog. 203 (setting [9]); 0.78 µg/mL (≈ 1.05 µM) in the data set with Staph. epid. 111 (setting [10]); greater than 50 µg/mL in the data set on Staph. aureus 400 (setting [13]); 3.12 µg/mL (≈ 4.18 µM) in the data set on Staph. aureus 005 (setting [12]); greater than 50 µg/mL with Hem. influ. 036 (Hem. influ. 036, read-out: MIC).

Turning to `CC[C@H]1OC(=O)[C@H](C)[C@@H](O[C@H]2C[C@@](C)(OC)[C@@H](O)[C@H](C)O2)[C@H](C)[C@@H](O[C@@H]2O[C@H](C)C[C@H](N(C)C)[C@H]2O)[C@](C)(O)C[C@@H](C)C(=O)[C@H](C)[C@@H](O)[C@]1(C)O` [Erythromycin A, reference compound], the ED50 in the data set with Strep pyogenes 203 (setting [3]) amounted to 25 mg/kg; in the data set on Staph aureus 005 (setting [4]), 64 mg/kg.

Take `CCC1OC(=O)C(C)C(OC2CC(C)(O)C(O)C(C)O2)C(C)C(OC2OC(C)CC(N(C)C)C2O)C(C)(O)CC(C)C(=O)C(C)C(O)C1C` (centres unmarked) [Erythromycin D]: the ED50 with Strep pyogenes 203 (po) is 15 mg/kg; in the data set with Staph aureus 005 (Staphylococcus aureus, 005, po), 57 mg/kg. Moreover, the in vitro activity result in data set [2] is reported as “exhibit in vitro activity”. Further, in the data set on sensitive bacteria, the in vivo activity entry is given as “exhibit in vivo activity”. Further, the “stability at acid pH” value in “stability at acid pH” is on record as “fairly stable”. Also, the MIC came to 6.25 µg/mL (≈ 8.88 µM) against Past. mult. 001; 6.25 µg/mL (≈ 8.88 µM) with Neiss. Sicca 000; 0.025 µg/mL (≈ 0.0355 µM) in the data set on Strep. pneum. 012; 25 µg/mL (≈ 35.5 µM) in the data set with Hem. influ. 012; 3.12 µg/mL (≈ 4.43 µM) with E. Coli 470; 0.39 µg/mL (≈ 0.554 µM) with Strep. faec. 006. Also, the MIC against Staph. aureus 052 (Staphylococcus aureus, 052, 24 h) was found to be 0.39 µg/mL (≈ 0.554 µM); in the data set on Strep. pyog. 203 it was 0.025 µg/mL (≈ 0.0355 µM); in the data set with Staph. epid. 111, 0.2 µg/mL (≈ 0.284 µM); against Staph. aureus 400 (setting [11]), 6.25 µg/mL (≈ 8.88 µM); against Staph. aureus 005 (Staphylococcus aureus, 005, 24 h), 0.39 µg/mL (≈ 0.554 µM); against Hem. influ. 036, 50 µg/mL (≈ 71 µM).
